Among the data in BindingDB's records for patent US10087181 (Curegenix, 2018) are IC50 values, retold here.

pIC50: −log10 of the molar value.

Chain of Protein Wnt-3a (P56704 whole entry): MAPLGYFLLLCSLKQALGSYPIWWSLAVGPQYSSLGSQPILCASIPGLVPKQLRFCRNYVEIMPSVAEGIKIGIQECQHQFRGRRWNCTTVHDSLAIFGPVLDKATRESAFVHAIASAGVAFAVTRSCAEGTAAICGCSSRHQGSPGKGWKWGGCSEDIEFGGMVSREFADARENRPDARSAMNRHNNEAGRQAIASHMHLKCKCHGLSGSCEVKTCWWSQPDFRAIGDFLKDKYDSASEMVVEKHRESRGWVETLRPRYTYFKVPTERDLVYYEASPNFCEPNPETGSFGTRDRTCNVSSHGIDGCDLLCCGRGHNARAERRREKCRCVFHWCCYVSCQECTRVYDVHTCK

The target in this assay is Protein Wnt-3a (Human, UniProt P56704). The assay is described as follows: WNT pathway reporter gene assay. As to the method:
NIH3T3 mouse fibroblast cells (American Type Culture Collection, Manassas, Va.) were transfected with a plasmid containing a luciferase gene driven by 5 copies of TCF elements. Stale cells selected with 1 μg/mL of Zeocin (Gibco/Invitrogen, Carlsbad, Calif.) are cultured in Dulbecco's modified Eagle's medium (Invitrogen, Carlsbad, Calif.) supplemented with 10% FBS (Invitrogen), 50 unit/mL penicillin and 50 μg/mL of streptomycin (Invitrogen) at 37° C. with 5% CO2 in air atmosphere. […] After 16 hours, the firefly luciferase activities are measured with the Steady-Glo Luciferase Assay System (Promega). The cells were treated with different concentrations of compounds of this invention during the co-culture. […] To normalize for cell quantity and viability, CellTiter Glo assay is next performed in a duplicate plate.
In general terms: Reporter assays use an easily measured gene product as a stand-in for the process of interest.
Usually pIC50 stands for −log10 of the IC50, conventionally taken in molar units. Higher therefore signals a small IC50. The molecule `Cc1cc(-c2ccc(CNc3nccc4cc(-c5ccnc(C)c5)ncc34)cc2)ccn1` [US10087181, Compound 1] showed a pIC50 of over 8.52. With `Cc1cc(-c2cc3ccnc(NCc4ccc(-c5ccnc(C)c5)c(C)c4)c3cn2)ccn1` [US10087181, Compound 2] the figure was over 8.52; with `Cc1cc(-c2cc3ccnc(NCc4ccc(-c5ccnc(F)c5)c(F)c4)c3cn2)ccn1` [US10087181, Compound 28], over 8.52. With `Cc1cc(-c2ccc(CNc3nccc4cc(-c5cnccn5)ncc34)cc2)ccn1` [US10087181, Compound 35] the figure was over 8.52. With `Cc1cc(-c2ncc(CNc3nccc4cc(-c5cnccn5)ccc34)cc2C)ccn1` [US10087181, Compound 70] the figure was over 8.52.
